Legend:
Assay type in all cases: in vivo
[1] = system: Karpas-299 tumor cells (CD30+ human large T cell lymphoma cell line); test: Karpas-299 subcutaneous xenograft tumor efficacy model in CB17 SCID mice; conditions: for Average tumor volume day 14: in mm³ (unit assumed)
Protocol: (§1) Karpas-299 (0.5×10^6) tumor cells in RPMI-1640 media were aseptically injected into the subcutaneous space in the right dorsal flank of CB17 SCID female mice (Charles Rive Lab) using a 26 G ⅝ needle. Karpas-299 is a CD30+ human large T cell lymphoma cell line and was obtained from DSMZ (Braunschweig, Germany).
(§2) Brentuximab vedotin (SGN-35), one vial (Seattle Genetics, 50 mg) was reconstituted in 50 ml 0.9% saline to give a stock solution of 1 mg/ml. The stock solution was then diluted again in 0.9% saline to reach the desired concentration and administered by intraperitoneal injection (IP) on q4D schedule for 21 days (SR-786), 14 days (Karpas-299) or 24 days (SUDHL-2) at 0.2 mg/kg, 0.4 mg/kg and 0.8 mg/kg.
(§3) The compound of formula (IIIa) was formulated in either 5% hydroxypropyl-beta-cyclodextrin (for SR-786 and Karpas-299 studies) or in 20% hydroxypropyl-beta-cyclodextrin for SUDHL-2 study. The amounts listed below in Tables 1a-3b are calculated based on the compound of formula (IV). The drug was administered by IV injection (1 cc syringe, 20-22 gauge) on BIW schedule at either 2 mg/kg or 8 mg/kg for 21 days (SR-786), 14 days (Karpas-299), or 24 days (SUDHL-2).
(§4) Tumors were measured twice weekly using a vernier caliper. Tumor volumes were calculated using standard procedures (0.5×(length×width^2)). When the tumors reached a volume of approximately 200 mm^3 for SR-786, 150 mm^3 for Karpas-299 and SUDHL-2, mice were randomized into 7-8 groups as described in the tables below, and injected with vehicle, compound of formula (IV) or SGN-35 or the combination of compound of formula (IV) with SGN-35, at various doses as described below in Tables 1a, 2a and 3a. Tumor size and body weight were measured approximately twice a week for the duration of the study. Mice were euthanized when their tumor volume reached 10% of their body weight, or when the average tumor volume of a treatment or control group reached approximately 2000 mm^3. Tumor growth continued to be monitored after the dosing period in this study. Tumor volume on study day 21 for all groups is shown in table 1a for SR-786 study; on study day 14 for all groups for Karpas-299 study in table 2a and on study day 24 for all groups for SUDHL-2 study in table 3a. Average tumor volume is reported as a function of time for all groups in FIG. 1 (SR-786), FIG. 2 (Karpas-299) and FIG. 3 (SUDHL-2). Tumor volumes were reported till the end of the study to capture re-growth.
(§5) The synergy analysis is based on the tumor volume data from day 0 to 21 for SR-786, days 0 to 14 for Karpas-299 and days 0 to 24 for SUDHL-2 and presented in table 1b, 2b and 3b. Volume measurements below 25 cubic mm are excluded from the analysis because very low volumes cannot be measured accurately. The remaining measurements are log transformed and fit to a simple linear model with the measurement day as a covariate. The data are fit separately for the different animals to yield an estimated tumor growth rate for each animal in each treatment group. Based on the growth rates, the synergy score for the combination of agents A and B is defined as
(§6) 100*(mean(μAB)−mean(μA)−mean(μB)+mean(μctl))/mean(μctl):
(§7) where μAB, μA, μB, and μctl are the mean tumor growth rates for animals in the combination group, the A group, the B group, and the control group, respectively. The standard error of the synergy score is computed based on the variation in the growth rates among the animals. […] If the P-value is above 0.05, then the combination is considered to be additive. If the P-value is below 0.05, and the synergy score is less than zero, then the combination is considered to be synergistic. […] Otherwise, the combination is classified as antagonistic.

[2] = system: SUDHL-2 tumor cells (CD30+ human large cell lymphoma cell line); test: SUDHL-2 subcutaneous xenograft tumor efficacy model in CB17-SCID mice; conditions: for Average tumor volume day 24: in mm³ (unit assumed)
Protocol: SUDHL-2 (2×10^6) tumor cells in RPMI-1640 media were aseptically injected into the subcutaneous space in the right dorsal flank of CB17-SCID female mice (Shanghai SLAC Laboratory Animal Co., LTD). SUDHL-2 is a CD30+ human large cell lymphoma cell line and was obtained from ATCC (Manassas, Va.).
as §2, §3, §4, §5, §6, §7

[3] = system: SR-786 tumor cells (CD30+ human large T cell lymphoma cell line); test: SR-786 subcutaneous xenograft tumor efficacy model in CB17 SCID mice; conditions: for Average tumor volume day 21: in mm³ (unit assumed)
Protocol: as §1, with “SR-786 (6.0×10^6)” for “Karpas-299 (0.5×10^6)”, “River” for “Rive”, “SR-786” for “Karpas-299”
as §2, §3, §4, §5, §6, §7

[4] = SGN-35 0.2 mg/kg IP, compared to the control vehicle group
[5] = SGN-35 0.4 mg/kg IP, compared to the control vehicle group
[6] = SGN-35 0.8 mg/kg IP, compared to the control vehicle group
[7] = compound of formula (IV) 2 mg/kg BIW IV
[8] = compound of formula (IV) 2 mg/kg IV
[9] = compound of formula (IV) 8 mg/kg BIW IV
[10] = compound of formula (IV) 8 mg/kg IV

Molecule: SGN-35
- tumor growth inhibition [1, 4]: 52%
- Average tumor volume day 14 ([1]; SGN-35 0.2 mg/kg Q4D IP): 647.4
- day on which group was sacrificed ([1]; SGN-35 0.2 mg/kg single agent): 25 days
- tumor growth inhibition [1, 5]: 100%
- Average tumor volume day 14 ([1]; SGN-35 0.4 mg/kg Q4D IP): 0
- mice tumor free at day 14 ([1]; SGN-35 0.4 mg/kg single agent): All the mice
- tumor growth inhibition [1, 6]: 100%
- Average tumor volume day 14 ([1]; SGN-35 0.8 mg/kg Q4D IP): 0
- mice tumor free at day 14 ([1]; SGN-35 0.8 mg/kg single agent): All the mice
- day on which group was sacrificed ([2]; SGN-35 0.2 mg/kg (Group 4)): 27 days
- tumor growth inhibition [2, 4]: 12%
- Average tumor volume day 24 ([2]; SGN-35 0.2 mg/kg Q4D IP): 1352.3
- day on which group was sacrificed ([2]; SGN-35 0.4 mg/kg (Group 5)): 45 days
- tumor growth inhibition [2, 5]: 50%
- Average tumor volume day 24 ([2]; SGN-35 0.4 mg/kg Q4D IP): 774.2
- day on which group was sacrificed ([2]; SGN-35 0.8 mg/kg (Group 6)): 59 days
- tumor growth inhibition [2, 6]: 82%
- Average tumor volume day 24 ([2]; SGN-35 0.8 mg/kg Q4D IP): 274.9
- tumor growth inhibition ([3]; SGN-35 0.2 mg/kg IP): 3%
- Average tumor volume day 21 ([3]; SGN-35 0.2 mg/kg Q4D IP): 1330
- tumor growth inhibition ([3]; SGN-35 0.4 mg/kg IP): 70%
- Average tumor volume day 21 ([3]; SGN-35 0.4 mg/kg Q4D IP): 409.9
- tumor growth inhibition ([3]; SGN-35 0.8 mg/kg IP): 100%
- Average tumor volume day 21 ([3]; SGN-35 0.8 mg/kg Q4D IP): 0
- tumors found in mice on day 76 ([3]; SGN-35 0.8 mg/kg single agent): No tumors were found in any mice
- mice tumor free on day 21 post treatment ([3]; SGN-35 0.8 mg/kg single agent (Group 6)): 7/7

Molecule: CC(C)C[C@H](NC(=O)CNC(=O)c1cc(Cl)ccc1Cl)B(O)O [compound of formula (IV), [(1R)-1-({[(2,5-dichlorobenzoyl)amino]acetyl}amino)-3-methylbutyl]boronic acid]
- Average tumor volume day 14 [1, 7]: 1600
- tumor growth inhibition [1, 8]: −16%
- Average tumor volume day 14 [1, 9]: 1971.5
- tumor growth inhibition [1, 10]: −43%
- day on which group was sacrificed due to high tumor burden ([1]; compound of formula (IV) single agent groups (2 mg/kg and 8 mg/kg)): 14 days
- Average tumor volume day 24 [2, 7]: 1449.3
- tumor growth inhibition [2, 8]: 6%
- Average tumor volume day 24 [2, 9]: 1129.5
- tumor growth inhibition [2, 10]: 26%
- day on which group was sacrificed ([2]; two compound of formula (IV) treated groups (Group 2 and 3; 2 mg/kg and 8 mg/kg)): 27 days
- Average tumor volume day 21 [3, 7]: 1221.5
- tumor growth inhibition [3, 8]: 10%
- Average tumor volume day 21 [3, 9]: 500.6
- tumor growth inhibition [3, 10]: 63%
